Assay results reported in patent EP0358766A1, “METHOD OF STERILIZING PLANT ANTHERS” (VSESOJUZNY NAUCHNO-ISSLEDOVATELSKY INST. SELSKOKHOZYAISTV. …, priority 1988, dated 1989).

Columns and labels:
[1] = system: Sommerweizens Sorte Botanicheskaya 4; assay: Field test of gametocidal activity, spring wheat Botanicheskaya 4; format: in vivo, Weizen; conditions: period V, 1% aqueous emulsion, 6 kg/ha in 600 l water; for Prozentsatz des Ansetzens von Samen bei freier Bestäubung: control = 100
Source text: (§1) Die gametozide Aktivität der erfindungsgemäßen Sterilisationsmittel war in Feldversuchen in verschiedenen bodenklimatischen Zonen mit Teilstücken von 10 m^2 Größe in dreibis viermaliger Wiederholung festgestellt. Jedes Sterilisationsmittel wurde mindenstens 5 Jahre lang geprüft.
(§2) Die Entwicklung der Perioden der Organogenese wird zytologisch überwacht. Die Behandlung von Pflanzen mit dem Sterilisationsmittel erfolgt am Anfang der fünften Periode der Organogenese nach Kupermann.
(§3) Mit dem Ährenschieben verwirklicht man die Isolierung von Hauptähren und anderen Stockwerken in Pergametbeuteln. Bei Weizen und Tritikale werden Einzelisolatoren benutzt. Bei Roggen schließt man je 1 Ähre von […] verschiedenen nebeneinander befindlichen Pflanzen unter einen gemeinsamen Isolator ein. Bei Hirse wird jede Rispe getrennt isoliert. Der Sterilitätsprozentsatz (X) für Weizen, Roggen, Tritikale und Hirse wird nach der Formel [formula] ermittelt.
(§4) Die Kornzahl in nicht isolierten Ähren von Kontrollpflanzen wird bedingt für 100 % Ansetzen bei freier Bestäubung angenommen.
(§5) Um zuverlässige Angaben zu erhalten, verwendet man 20 bis 25 Isolatoren je Wiederholung für Weizen und Tritikale, 10 bis 15 Isolatoren jeder Wiederholung für Roggen und Hirse.
Pflanzen des Sommerweizens Sorte Botanicheskaya 4 werden in der V. Periode der Organogenese (nach Kupermann) mit einer 1%igen wäßrigen Emulsion von 1,3-Dibrompropan, 1,1,1,3-Tetrabromheptan, 1,1,2-Tribromheptan bzw. 1,2--Dibromheptan behandelt. Die Emulsion enthält 0,5 Masse% C12-C14-Kalziumalkylbenzolsulfonat und 0,01 Masse% Dimethylsulfoxid als Adjuvans. Der Verbrauch an Präparat beträgt 6 kg/ha bei 600 1 Wasserdurchsatz. Als Kontrolle dienen Pflanzen, behandelt mit dem Verdünner ohne Sterilisationsmittel.
Die Prüfergebnisse sind in der Tabelle 4 angegeben. Die gleichen Ergebnisse sind bei der Behandlung des Sommerweizens Sorte Botanicheskaya 4 in der VI. Periode der Organogenese erhalten.

[2] = system: Tritikale Ampfindiploid 206; assay: Field test of gametocidal activity, triticale Amphidiploid 206; format: in vivo; conditions: period V, 1% aqueous emulsion, 6 kg/ha in 600 l water; for Prozentsatz des Ansetzens von Samen bei freier Bestäubung: control = 100
Source text: as §1, §2, §3, §4, §5
Pflanzen von Tritikale Ampfindiploid 206 werden in der V.Periode der Organogenese (nach Kupermann) mit einer 1%igen wäßrigen Emulsion von 1,1,3-Tribrompropan bzw. 1,2-Dibromheptan behandelt. Die Emulsion enthält 0,5 Masse% C12-C14--Kalziumalkylbenzolsulfonat und 0,01 Masse% Dimethylformamid. Der Verbrauch an Präparat beträgt 6 kg/ha bei 600 1 Wasserdurchsatz. Die Prüfergebnisse sind in der Tabelle 6 angegeben.
Die gleichen Ergebnisse sind bei der Behandlung von Tritikale Amphidiploid 206 in der VI. Periode der Organogenese erhalten.

[3] = system: Sommerweizens Sorte Rodina; assay: Field test of gametocidal activity, spring wheat Rodina; format: in vivo, Weizen; conditions: period V, 1% aqueous emulsion, 6 kg/ha in 600 l water; for Prozentsatz des Ansetzens von freier Bestäubung: control = 100
Source text: as §1, §2, §3, §4, §5
Pflanzen des Sommerweizens Sorte Rodina werden in der V.Periode der Organogenese (nach Kupermann) mit einer l%igen wäßrigen Emulsion von 1,3-Dibrompropan, 1,1,1,3-Tetrabromheptan, 1,1,3-Tribromheptan bzw. 1,2-Dibromheptan behandelt. Die Emulsion enthalt 0,5 Masse% C12-C14 Kalziumalk^ylbenzol- sulfonat und 0,01 Masse% Dodezylsulfat. Der Verbrauch an Präparat beträgt 6 Kg/ha bei 600 1 Wasserdurchsatz. Als Kontrolle dienen Pflanzen, behandelt mit dem Verdünner ohne Sterilisationsmittel.
Die Prüfergebnisse sind in der Tabelle 3 angegeben. Die gleichen Ergebnisse sind bei der Behandlung des Sommerweizens Sorte Rodina in der VI. Periode der Organogenese erhalten.

Sonnenblume Linie BK 119 = assay: Field test of pollen sterilisation, sunflower line BK 119; format: in vivo
Source text: as §1, §2
Zur Kontrolle der chemischen Sterilisation des Sonnenblumenpollens werden für jede Verbindung 45 behandelte Pflanzen je Wiederholung benutzt, wobei 15 Pflanzen zwecks Selbstbestäubung des Blütenkörbchens isoliert werden, 15 Pflanzen mit einem Pollengemisch, gesammelt von 20 bis 25 behandelten isolierten Körbchen, bestäubt werden, und 15 Pflanzen für freie Bestäubung gelassen werden, damit das Ansetzen von Achänen mit dem Pollen der Vaterform kontrolliert worden kann.
Man beurteilt die Pollensterilität von Pflanzen der Sonnenblume nach der Pollenfertilität und -keimfähigkeit, nach den morphologischen Besonderheiten von Spermien und nach der Fähigkeit von Achänen […] bei der Bestäubung der behandelten isolierten Pflanzen mit dem Pollen der unbehandelten väterlichen Form. Die Lebensfähigkeit der Eizelle wird nach der Samenbildung bei behandelten Pflanzen bei freier Bestäubung der väterlichen Form bestimmt.
Pflanzen der Sonnenblume Linie BK 119 werden mit einer 0,2%igen wäßrigen Emulsion von 1,1,3-Tribrompropan bzw. 1,2-Dibrompropan behandelt. Die Emulsion enthält 0,5 Masse% C12-C14 Natriumalkylbenzolsulfonat und 0,01 Masse% Dimethylformamid als Adjuvans. Der Verbrauch an Präparat beträgt 1,2 kg/ha bei 600 1 Wasserdurchsatz. Die Prüfergebnisse sind in der Tabelle 17 angegeben. Die gleichen Ergebnisse sind bei der Behandlung von Sonnenblume Linie BK in der VI. Periode der Organogenese erhalten.
Man verführt analog den Beispielen 88-89. Als Sterilisationsmittel dient eine 0,1%ige wäßrige Emulsion von 1,2--Dibrom-3-chlorpropan. Der Verbrauch an Präparat beträgt 0,6 kg/ha bei 600 1 Wasserdurchsatz. Die Prüfergebnisse sind in der Tabelle 17 angegeben.

Tritikale PRAG-109 = assay: Field test of gametocidal activity, triticale PRAG-109; format: in vivo; conditions: period V, 1% aqueous emulsion, 6 kg/ha in 600 l water; for Prozentsatz des Ansetzens von Samen bei freier Bestäubung: control = 100
Source text: as §1, §2, §3, §4, §5
Pflanzen von Tritikale PRAG-109 werden in der V.Periode der Organogenese (nach Kupermann) mit einer 1%igen wäßrigen Emulsion von 1,1,1,3-Tetrabromheptan, 1,1,3-Tribromheptan, 1,2,3-Tribrompropan bzw. 1,2-Dibrom-3-chlor- propan behandelt. Die Emulsion enthält 0,5 Masse% C12-C14--Kalziumalkylbenzolsulfonat und 0,01 Masse% Dodezylsulfat. Der Verbrauch an Präparat beträgt 6 kg/ha bei 600 1 Wasserdurchsatz. Als Kontrolle dienen Pflanzen, behandelt mit dem Verdünner ohne Sterilisationsmittel. Die Prüfergebnisse sind in der Tabelle 5 angegeben. Die gleichen Ergebnisse sind bei der Behandlung von Tritikale PRAG-109 in der VI. Periode der Organogenese erhalten.

[4] = Toxicity in animal test (LD50); parameters: species or system Mäuse; conditions: in vivo, mice stated only for 1,1,3-Tribrompropan, species not given for the others
Source text: Alle erfindungsgemäßen Polybromalkane, die als Sterilisationsmittel zur Verwendung kommen, waren auf die Toxizität im Tierversuch geprüft. Die Prüfergebnisse haben ergeben, daß die angegebenen Verbindungen von schwacher oder mittlerer Toxizität sind.

[5] = system: Winterweizens Sorte Mironowskaya 808; assay: Field test of gametocidal activity (anther sterilisation), winter wheat Mironowskaya 808; format: in vivo, Weizen; conditions: read-out: Prozentsatz der Sterilität %
[6] = workplace air limit; cited from earlier work
[7] = 0.1% aqueous emulsion, 0.6 kg/ha in 600 l water
[8] = 0.2% aqueous emulsion, 1.2 kg/ha in 600 l water

CCCCCC(Br)CBr (stereo not drawn) [Beispiel 11, 1,2-Dibromheptan]
Kornzahl der Ähre bei freier Bestäubung [1]: 23,6
Kornzahl der Ähre im Isolator [1]: 0,0
Prozentsatz der Sterilität [1]: 100,0%
Prozentsatz des Ansetzens von Samen bei freier Bestäubung [1]: 76,4%
Kornzahl der Ähre bei freier Bestäubung [2]: 29,2
Kornzahl der Ähre im Isolator [2]: 0,0
Prozentsatz der Sterilität [2]: 100,0%
Prozentsatz des Ansetzens von Samen bei freier Bestäubung [2]: 79,8%
Kornzahl der Ähre bei freier Bestäubung [3]: 32,7
Kornzahl der Ähre im Isolator [3]: 0,0
Prozentsatz der Sterilität [3]: 100,0%
Prozentsatz des Ansetzens von freier Bestäubung [3]: 80,9%

ClCC(Br)CBr (stereo not drawn) [Beispiel 7, 1,2-Dibrom-3-chlorpropan]
Ansetzen bei freier Bestäubung in % (Sonnenblume Linie BK 119; [7]): 82,0%
Ansetzen im Isolator bei Pollengemischbestäubung in % (Sonnenblume Linie BK 119; [7]): 0,0%
Pollenstesterilität in % (Sonnenblume Linie BK 119; [7]): 100,0%
Kornzahl der Ähre bei freier Bestäubung (Tritikale PRAG-109): 42,6
Kornzahl der Ähre im Isolator (Tritikale PRAG-109): 1,1
Prozentsatz der Sterilität (Tritikale PRAG-109): 97,3%
Prozentsatz des Ansetzens von Samen bei freier Bestäubung (Tritikale PRAG-109): 93,0%
LD50 [4]: ~170 mg/kg

BrCCC(Br)Br [Beispiel 1, 1,1,3-Tribrompropan]
pest or weed control at 1 %, 20000 g/ha [5]: 98%
Ansetzen bei freier Bestäubung in % (Sonnenblume Linie BK 119; [8]): 80,4%
Ansetzen im Isolator bei Pollengemischbestäubung in % (Sonnenblume Linie BK 119; [8]): 0,0%
Pollenstesterilität in % (Sonnenblume Linie BK 119; [8]): 100,0%
LD50 [4]: 540 mg/kg
Kornzahl der Ähre bei freier Bestäubung [2]: 30,1
Kornzahl der Ähre im Isolator [2]: 0,0
Prozentsatz der Sterilität [2]: 100,0%
Prozentsatz des Ansetzens von Samen bei freier Bestäubung [2]: 82,2%

CCCCC(Br)CC(Br)Br (stereo not drawn) [Beispiel 10, 1,1,3-Tribromheptan]
Kornzahl der Ähre bei freier Bestäubung (Tritikale PRAG-109): 59,6
Kornzahl der Ähre im Isolator (Tritikale PRAG-109): 0,0
Prozentsatz der Sterilität (Tritikale PRAG-109): 100,0%
Prozentsatz des Ansetzens von Samen bei freier Bestäubung (Tritikale PRAG-109): 86,4%
Kornzahl der Ähre bei freier Bestäubung [3]: 33,8
Kornzahl der Ähre im Isolator [3]: 0,0
Prozentsatz der Sterilität [3]: 100,0%
Prozentsatz des Ansetzens von freier Bestäubung [3]: 83,7%

CC(Br)CBr (stereo not drawn) [Beispiel 5, 1,2-Dibrompropan]
maximale Arbeitsplatzkonzentration (MAK-Wert) [6]: 5 mg/m^3
Ansetzen bei freier Bestäubung in % (Sonnenblume Linie BK 119; [8]): 88,2%
Ansetzen im Isolator bei Pollengemischbestäubung in % (Sonnenblume Linie BK 119; [8]): 0,0%
Pollenstesterilität in % (Sonnenblume Linie BK 119; [8]): 100,0%

BrCC(Br)CBr [Beispiel 4, 1,2,3-Tribrompropan]
Kornzahl der Ähre bei freier Bestäubung (Tritikale PRAG-109): 40,5
Kornzahl der Ähre im Isolator (Tritikale PRAG-109): 0,2
Prozentsatz der Sterilität (Tritikale PRAG-109): 99,5%
Prozentsatz des Ansetzens von Samen bei freier Bestäubung (Tritikale PRAG-109): 88,4%

CCCCC(Br)CC(Br)(Br)Br (stereo not drawn) [Beispiel 9, 1,1,1,3-Tetrabromheptan]
Kornzahl der Ähre bei freier Bestäubung [1]: 28,1
Kornzahl der Ähre im Isolator [1]: 0,0
Prozentsatz der Sterilität [1]: 100,0%
Prozentsatz des Ansetzens von Samen bei freier Bestäubung [1]: 90,9%
Kornzahl der Ähre bei freier Bestäubung (Tritikale PRAG-109): 61,8
Kornzahl der Ähre im Isolator (Tritikale PRAG-109): 0,0
Prozentsatz der Sterilität (Tritikale PRAG-109): 100,0%
Prozentsatz des Ansetzens von Samen bei freier Bestäubung (Tritikale PRAG-109): 89,6%
Kornzahl der Ähre bei freier Bestäubung [3]: 35,4
Kornzahl der Ähre im Isolator [3]: 0,0
Prozentsatz der Sterilität [3]: 100,0%
Prozentsatz des Ansetzens von freier Bestäubung [3]: 87,6%
